In PubChem BioAssay (NCI) one finds GI50 and TGI data, which are given here for 18 compounds.

Molecules are shown by their SMILES.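 Test compounds were applied to cells in 96-well plates for 48 hours at 5 doses. GI50 marks 50% less growth. TGI denotes the concentration required for complete inhibition of growth.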

In this assay the test system is MDA-MB-468 breast. The experiment in a line: growth of human tumour cells (NCI), 48 h.
Consider `COc1cc2cc(C(=O)CCC(=O)O)sc2cc1OC`, for which the GI50 was greater than 100 µM and the TGI was greater than 100 µM.
As for `CCOc1ccccc1NC(=O)c1cc2ccccc2cc1O`, the GI50 is 2.38 µM and the TGI turned out to be 7.18 µM.
For `CCCc1cc(O)c2c3c(c(=O)oc2c1)CN(C)CC3`, the GI50 is 24.2 µM and the TGI turned out to be 85.2 µM.
The matching figures for `Cc1ccc2c(c1)c1nc3cc(C)c(C)cc3nc1n2CCN(C)C`: 1.39 µM and 3.54 µM.
The matching figures for `N#Cc1cccc(OCc2nc(N)nc(N)c2-c2ccc(Cl)c(Cl)c2)c1`: 3.08 µM and greater than 100 µM.
In the same order, the values of `CC(C)c1c(C(=O)Nc2ccccc2)c(-c2ccccc2)c(-c2ccc(F)cc2)n1CC[C@@H]1CC=CC(=O)O1` are 1.83 µM and 3.82 µM.
Turning to `Cn1ccnc1C(=O)/C=C/c1ccc(C(=O)Nc2ccc(S(F)(F)(F)(F)F)cc2)cc1`, the GI50 was 0.423 µM and the TGI is 13.8 µM.
For the compound `N/C(=C\C(=O)n1nc(-c2ccccc2)cc1N)c1ccccc1`, the GI50 is 5.54 µM and the TGI stood at 56.3 µM.
In the same order, the values of `CC(=O)N1N=C(c2ccc(Nc3nc(Nc4ccc(Cl)cc4)nc(Nc4ccc(Cl)cc4)n3)cc2)CC1c1ccc([N+](=O)[O-])cc1` (stereo unspecified) are 3.08 µM and greater than 100 µM.
The matching figures for `CCCCCc1nc2c(c3c1CCCC3)CCCC2`: 4.13 µM and 18.1 µM.
Turning to `CCCCCCc1cc2cc(-c3nc4ccccc4[nH]3)c(=Nc3ccccc3C)oc2cc1O`, the GI50 was 1.82 µM and the TGI was 3.74 µM.
In the same order, the values of `Cn1cc(C2=C(c3cccc(N)c3)C(=O)NC2=O)c2ccccc21` are greater than 18.2 µM and greater than 25 µM.
For the compound `Cc1cc(NCCCNc2ccnc3cc(Cl)ccc23)nc(N2CCN(C)CC2)n1`, the GI50 was 1.76 µM and the TGI worked out at 5.97 µM.
The matching figures for `Nc1ccccc1-c1ccc([N+](=O)[O-])cc1`: 13.4 µM and greater than 100 µM.
The matching figures for `COc1ccc(C2CC(c3cccc(Nc4ccncc4)c3)=NN2c2ccc(Cl)cc2)cc1` (stereo unspecified): 1.45 µM and 2.95 µM.
In the same order, the values of `COc1cc(-c2nc3sccn3c2-c2ccnc(NCCNS(=O)(=O)c3ccc(Cl)cc3)n2)ccc1F` are 2.48 µM and greater than 100 µM.
As for `Oc1ccc(CN2CCC(N3CCOCC3)CC2)c2cccnc12`, the GI50 was 22.6 µM and the TGI was 60.6 µM.
Take `CCN1/C(=C/C=C/c2n(-c3ccccc3)c3ccc(-c4nc5ccccc5s4)cc3[n+]2CC)N(c2ccccc2)c2ccc(-c3nc4ccccc4s3)cc21`: the GI50 was 0.283 µM and the TGI was greater than 50 µM.
